{"source": "BindingDB's records for patent US20250108123", "about": "(Jacobio Pharmaceuticals, 2025)", "molecular_target": "Stimulator of interferon genes protein (Homo sapiens, UniProt Q86WV6)", "sequence (Q86WV6 whole entry)": "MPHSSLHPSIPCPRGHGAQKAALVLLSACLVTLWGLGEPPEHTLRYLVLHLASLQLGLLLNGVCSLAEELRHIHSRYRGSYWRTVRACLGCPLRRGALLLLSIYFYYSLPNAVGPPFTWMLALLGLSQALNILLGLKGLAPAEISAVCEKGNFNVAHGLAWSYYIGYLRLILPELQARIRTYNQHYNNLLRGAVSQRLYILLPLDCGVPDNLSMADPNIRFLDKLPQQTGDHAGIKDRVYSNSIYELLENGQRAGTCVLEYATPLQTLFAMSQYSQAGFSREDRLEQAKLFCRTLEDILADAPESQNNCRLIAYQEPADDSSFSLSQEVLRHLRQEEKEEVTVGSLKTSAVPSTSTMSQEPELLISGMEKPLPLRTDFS", "test": "Human STING WT Binding Assay", "protocol": "Cisbio Bioassays' human STING WT binding assay (#64BDSTGPEG & 64BDSTGPEH, Cisbio) is for quantitative measurement of human STING WT ligand using HTRF technology.1. Adding CompoundsNegative control: Dispense 5 μL of diluent into each negative control well. Standard: Dispense 5 μL of each Human STING WT Standard 2′3′-cGAMP (Std 0-Std 7) into each standard well. Compound: Dispense 5 μL of compound into each compound well.2. Adding ProteinsNegative control: Add 5 μL of detection buffer to all wells. Other wells: Add 5 μL of human STING WT protein 6His-tagged protein to all wells.3. Adding AntibodiesAdd 10 μL of premixed STING WT ligand d2 reagent and 6His Tb antibody working solution to all wells.4. RT IncubationSeal the plate and incubate 3 hours at RT or at Over Night if necessary.5. Reading PlateRemove the plate sealer and read on an HTRF compatible reader (PerkinElmer, USA). Results were analyzed with a two-wavelength signal ratio: intensity (665 nm)/intensity (620 nm).6.", "note": "pIC50: −log10 of the molar value."}
{"molecule": "COC1C=C2CN(C(=O)CCC(=O)O)CC2=CC1OCCCOC1C=C2CN(C(=O)CCC(=O)O)CC2=CC1OC", "note": "(stereo unspecified) [US20250108123, Example I-1]", "values": [{"measurement": "pIC50", "value": "> 10.00"}]}
